Assay results published in the CheMixHub viscosity set.
“And” between values parts separate entries of the source, which are not always exact repeats. Equal entries are not always repeated.

Tests used:
[1] = xn = mol fraction of the nth substance listed

CCC(=O)O.CCC(=O)[O-].CC[NH+](CC)CCO
101 kPa
Conditions | viscosity [mPa·s]
293.15 K | 88.32
298.15 K | 66.16
303.15 K | 50.6
308.15 K | 39.4
313.15 K | 31.21
318.15 K | 25.1
323.15 K | 20.46

CCCCCCCCCCCCn1cc[n+](C)c1.O=S(=O)([N-]S(=O)(=O)C(F)(F)F)C(F)(F)F
100 kPa
Conditions | viscosity
298 K | 135.9 mPa·s and 150.3 mPa·s
303 K | 102.5 mPa·s and 114.4 mPa·s
308 K | 79.3 mPa·s and 88.7 mPa·s
313 K | 62.31 mPa·s and 70.09 mPa·s
318 K | 49.81 mPa·s and 56.18 mPa·s
323 K | 39.98 mPa·s and 45.26 mPa·s

CCCCn1cc[n+](C)c1C.O=S(=O)([N-]S(=O)(=O)C(F)(F)F)C(F)(F)F
101.3 kPa
Conditions | viscosity [mPa·s]
293.15 K | 132.9
303.15 K | 78.56
308.15 K | 62.2
313.15 K | 50.15
318.15 K | 41.04
323.15 K | 34.04

CC(C)COCCO
Conditions | viscosity [mPa·s]
298.15 K, 101 kPa | 3.33

CCOP(=O)([O-])OCC.CC[N+]1(C)CCCC1
100 kPa
Conditions | viscosity [mPa·s]
293.15 K | 440.8
298.15 K | 306.8
303.15 K | 220
308.15 K | 164.1
313.15 K | 121.4
318.15 K | 92.72
323.15 K | 72.98

O=C(O)C1CCCCC1
101 kPa
Conditions | viscosity [mPa·s]
310 K | 13.2
320 K | 9.26

CCCOCC(C)OCC(C)O (stereo not drawn)
101.33 kPa
Conditions | viscosity [mPa·s]
298.15 K | 4.001
308.15 K | 2.986
318.15 K | 2.271

CCOP(OCC)OCC
Conditions | viscosity [mPa·s]
298.15 K, 101 kPa | 0.698

CCCC(=O)[O-].[NH3+]CCO
101 kPa
Conditions | viscosity [mPa·s]
293.15 K | 3077
298.15 K | 2071
303.15 K | 1434
308.15 K | 1011
313.15 K | 733.5
318.15 K | 539.6
323.15 K | 397.8

CCCCCCCC/C=C\CCCCCCCC(=O)OCC
viscosity
Conditions | 293.15 K | 298.15 K | 303.15 K | 308.15 K | 313.15 K | 318.15 K | 323.15 K
100 kPa | 6.414 mPa·s | 5.653 mPa·s | 4.986 mPa·s | 4.435 mPa·s and 4.424 mPa·s | 3.919 mPa·s | 3.554 mPa·s | 3.214 mPa·s
101 kPa | 6.413 mPa·s | 5.653 mPa·s | 4.986 mPa·s | 4.424 mPa·s | 3.918 mPa·s | 3.554 mPa·s | 3.214 mPa·s

CC(=O)OCCC(C)C
viscosity
Conditions | 293.15 K | 303.15 K | 313.15 K
101 kPa | 0.86 mPa·s | 0.743 mPa·s and 0.7175 mPa·s and 0.7168 mPa·s | 0.642 mPa·s
101.3 kPa | – | 0.6997 mPa·s | –

CC(=O)OCCC(C)C + Brc1ccccc1
viscosity [mPa·s], [1], 101 kPa
Conditions | 298.15 K | 303.15 K | 308.15 K | 313.15 K
x1 = 0.0443 | 1.026 | – | 0.952 | –
x1 = 0.0719 | – | 1.003 | – | 0.883
x1 = 0.1494 | 0.992 | – | 0.925 | –
x1 = 0.1499 | – | 0.991 | – | 0.869
x1 = 0.2334 | – | 0.974 | – | 0.852
x1 = 0.2513 | 0.962 | – | 0.898 | –
x1 = 0.3222 | – | 0.949 | – | 0.828
x1 = 0.3494 | 0.933 | – | 0.875 | –
x1 = 0.4137 | – | 0.921 | – | 0.801
x1 = 0.4478 | 0.908 | – | 0.853 | –
x1 = 0.4962 | 0.895 | – | 0.842 | –
x1 = 0.509 | – | 0.893 | – | 0.774
x1 = 0.5517 | 0.881 | – | 0.83 | –
x1 = 0.6182 | – | 0.859 | – | 0.743
x1 = 0.6512 | 0.857 | – | 0.811 | –
x1 = 0.7358 | – | 0.823 | – | 0.711
x1 = 0.7497 | 0.834 | – | 0.792 | –
x1 = 0.8504 | 0.812 | – | 0.773 | –
x1 = 0.8603 | – | 0.787 | – | 0.677
x1 = 0.9487 | 0.791 | – | 0.756 | –

CCCCCCCC/C=C\CCCCCCCCO + CC(C)[C@@H]1CC[C@@H](C)C[C@H]1O
[1], 100 kPa, x2 = 0.5
Conditions | viscosity [mPa·s]
298.13 K | 19.79
298.15 K | 19.76
303.15 K | 14.47
313.13 K | 9.11
323.12 K | 5.98

CCCOCC(C)OCC(C)O (stereo not drawn) + CO
[1], 298.15 K, 101 kPa
Conditions | viscosity [mPa·s]
x1 = 0.0049 | 0.5615
x1 = 0.0317 | 0.671
x1 = 0.0663 | 0.8138
x1 = 0.1021 | 0.9677
x1 = 0.1531 | 1.186
x1 = 0.2032 | 1.412
x1 = 0.2563 | 1.651
x1 = 0.3125 | 1.899
x1 = 0.3556 | 2.09
x1 = 0.4091 | 2.314
x1 = 0.4685 | 2.55
x1 = 0.5204 | 2.746
x1 = 0.5557 | 2.869
x1 = 0.6337 | 3.117
x1 = 0.6879 | 3.273
x1 = 0.7232 | 3.366
x1 = 0.8407 | 3.639
x1 = 0.8827 | 3.724
x1 = 0.937 | 3.813

CC(=O)OCCC(C)C + Cc1ccc(C)cc1
viscosity [mPa·s], [1], 101 kPa
Conditions | 298.15 K | 308.15 K
x1 = 0.0453 | 0.615 | 0.54
x1 = 0.1495 | 0.617 | 0.55
x1 = 0.2436 | 0.622 | 0.561
x1 = 0.3501 | 0.632 | 0.576
x1 = 0.4497 | 0.644 | 0.594
x1 = 0.4974 | 0.651 | 0.603
x1 = 0.5484 | 0.659 | 0.613
x1 = 0.6458 | 0.678 | 0.636
x1 = 0.7503 | 0.702 | 0.663
x1 = 0.8492 | 0.73 | 0.693
x1 = 0.9411 | 0.76 | 0.725

CCOP(OCC)OCC + N#Cc1ccccc1
[1], 298.15 K, 101 kPa
Conditions | viscosity [mPa·s]
x1 = 0.2 | 1.089
x1 = 0.4 | 0.963
x1 = 0.6 | 0.848
x1 = 0.8 | 0.781

CC(=O)O.OCCNCCO
viscosity [mPa·s]
Conditions | 293.15 K | 298.15 K | 303.15 K | 308.15 K | 313.15 K | 318.15 K | 323.15 K
100 kPa | 5750 | – | 2248 | – | 1003 | – | 491.7
101.3 kPa | 2115 | 1363 | 905.4 | 617.3 | 431.4 | 308.3 | 225

CN(C)CCCN
viscosity
Conditions | 293.15 K | 303.15 K | 308.15 K | 313.15 K | 318.15 K | 323.15 K
100 kPa | 1.079 mPa·s | 0.8997 mPa·s | – | 0.7611 mPa·s | – | 0.6553 mPa·s
101 kPa | – | 0.941 mPa·s | 0.8773 mPa·s and 0.862 mPa·s | 0.8098 mPa·s and 0.793 mPa·s | 0.7531 mPa·s and 0.731 mPa·s | 0.7013 mPa·s and 0.678 mPa·s
